# Reference: US20050026812A1, “Conjugated nitro alkene anticancer agents based on isoprenoid metabolism” (Arizona Disease Control Research Commission, priority 2003, published 2005)
# Read-outs that look alike come from different tables or passages of the source.
# Tests used:
# [1] = system: Urinary bladder (T-24); test: Cancer cell growth inhibition in culture, Urinary bladder (T-24); assay type: cell-based, human; conditions: 50% growth inhibition
# Source text: (§1) Cancer cell growth inhibition.
# [2] = system: Fibrosarcoma (HT-1080); test: Cancer cell growth inhibition in culture, Fibrosarcoma (HT-1080); assay type: cell-based, human; conditions: 50% growth inhibition
# Source text: as §1
# [3] = system: Colon (Caco-2); test: Cancer cell growth inhibition in culture, Colon (Caco-2); assay type: cell-based, human; conditions: 50% growth inhibition
# Source text: as §1
# [4] = system: Colon (HT-29); test: Cancer cell growth inhibition in culture, Colon (HT-29); assay type: cell-based, human; conditions: 50% growth inhibition
# Source text: as §1
# [5] = system: NSC Lung (H-460); test: Cancer cell growth inhibition in culture, NSC Lung (H-460); assay type: cell-based; conditions: Homo sapiens, NCI-H460, 50% growth inhibition
# Source text: as §1
# [6] = system: Colorectal (Colo-205); test: Cancer cell growth inhibition in culture, Colorectal (Colo-205); assay type: cell-based, human; conditions: 50% growth inhibition
# Source text: as §1
# [7] = system: Acute myeloid leukemia (HL-60); test: Cancer cell growth inhibition in culture, Acute myeloid leukemia (HL-60); assay type: cell-based, human; conditions: 50% growth inhibition
# Source text: as §1
# [8] = biological target: T1, human recombinant protein farnesyltransferase (FTase) (Homo sapiens, UniProt P49354+P49356); test: FTase fluorescence assay after pre-incubation with inhibitor; assay type: biochemical; conditions: 30-minute treatment in vitro, 30° C.
# T1 construct: gift from Professor Patrick Casey, Duke University
# Protocol: Preparation of Ds-GCVLS—Ds-GCVLS was prepared by a method analogous to a published procedure. Synthesis was performed by use of a Millipore 9050 Plus PepSynthesizer that employed standard Fmoc solid phase peptide synthesis methodology. PS-PEG resin and Fmoc protected amino acids were obtained from Millipore. The N-dansylglycine was from Sigma Chemical Co. Peptide purification was performed by RP-HPLC on an Alltech Macrosphere RP300 C8 column. Elution was accomplished with a linear gradient from aqueous 10 mM trifluoroacetic acid to 10 mM trifluoroacetic acid in acetonitrile. Lyophilization yielded a pale yellow solid. […] Concentrations of Ds-GCVLS were determined by use of the extinction coefficient of the dansyl group at 340 nm (ε=4250 M-1 cm-1). […]
# FTase assay—The fluoresence assay conditions were adapted from a published method. […] Enzyme activity (approximately 60 nM FTase) was monitored at saturating substrate concentrations (10 μM farnesyl diphosphate, ammonium salt, prepared by successive dilutions of a commercial 2.3 mM solution in methanol:10 mM aqueous NH4OH (7:3) into assay buffer, and 1.0 FM Ds-GCVLS) by measurement of the increase in fluorescence emission observed at λ=505 nm as FTase farnesylated Ds-GCVLS for a period of 10 min. […] All fluorescence assays were conducted in a 4 mm×4 mm quartz cuvette with excitation at 340 nm. […]
# [9] = system: Prostate (PC-3); test: Cancer cell growth inhibition in culture, Prostate (PC-3); assay type: cell-based; conditions: Homo sapiens, 50% growth inhibition
# Source text: as §1
# [10] = system: Pancreatic (BXPC-3); test: Cancer cell growth inhibition in culture, Pancreatic (BXPC-3); assay type: cell-based; conditions: Homo sapiens
# Source text: (§2) Compound RG-14 was also effective at inhibiting the growth of human cancer cells in culture. The GI50 values of this compound against specified human cancer cells and mouse leukemia cells grown in culture are shown in Table 2.
# as §1
# [11] = system: Breast (MCF-7); test: Cancer cell growth inhibition in culture, Breast (MCF-7); assay type: cell-based; conditions: Homo sapiens, MCF7
# Source text: as §2, §1
# [12] = system: Prostate (DU-145); test: Cancer cell growth inhibition in culture, Prostate (DU-145); assay type: cell-based; conditions: Homo sapiens
# Source text: as §2, §1
# [13] = system: Lung (NCI-H460); test: Cancer cell growth inhibition in culture, Lung (NCI-H460); assay type: cell-based; conditions: Homo sapiens
# Source text: as §2, §1
# [14] = system: Colon (KM20L2); test: Cancer cell growth inhibition in culture, Colon (KM20L2); assay type: cell-based; conditions: Homo sapiens, KM-20L2
# Source text: as §2, §1
# [15] = system: Central nervous system (SF268); test: Cancer cell growth inhibition in culture, Central nervous system (SF268); assay type: cell-based; conditions: Homo sapiens, SF-268
# Source text: as §2, §1
# [16] = system: Mouse P388 leukemia; test: Cancer cell growth inhibition in culture, Mouse P388 leukemia; assay type: cell-based; conditions: read-out: ED50 (the source's name)
# Source text: as §2, §1
# [17] = system: human cancer cells and mouse leukemia cells; test: Cancer cell growth inhibition in culture, panel of Table 2; assay type: cell-based; conditions: cell lines of Table 2
# Source text: as §2, §1
Structure (SMILES),GI50 [1],GI50 [2],GI50 [3],GI50 [4],GI50 [5] [µM],GI50 [6],GI50 [7],decrease of FTase activity ([8]; 5 μM) [%],inhibition at 50 µM ([8]; 50 μM) [%],GI50 [9] [µM],GI50 [10] [µM],GI50 [11] [µM],GI50 [12] [µM],GI50 [13] [µM],GI50 [14] [µM],GI50 [15] [µM],EC50 [16] [µM],"GI50 ([3]; Homo sapiens, read-out: GI50) [µM]","GI50 ([7]; Homo sapiens, read-out: GI50) [µM]",anticancer cell growth activity [17]
"CC(C)=CCC/C(C)=C/CCC(C)C/C=C(\C)[N+](=O)[O-] (racemic) [RG-4, 5,9,13-trimethyl-2-nitrotetradeca-2,8,12-triene]",10^−4 to 10^−5 molar,10^−6 to 10^−7 molar,10^−4 to 10^−5 molar,10^−4 to 10^−5 molar,11,10^−4 to 10^−5 molar,10^−6 to 10^−7 molar,35,83,1.5,–,–,–,–,–,–,–,–,–,–
"CC(C)=CCCC(C)CC=C(C)[N+](=O)[O-] (racemic) [RG-14, 5,9-dimethyl-2-nitrodeca-2,8-diene]",–,–,–,–,–,–,–,–,–,–,62,39,72,72,77,73,26,–,–,–
"CC(C)=CCCC(C)C/C=C/[N+](=O)[O-] (stereo not drawn) [RG-7, 4,8-dimethyl-1-nitronona-1,7-diene]",10^−4 to 10^−5 molar,10^−4 to 10^−5 molar,–,10^−4 to 10^−5 molar,12,10^−4 to 10^−5 molar,–,–,–,44,–,–,–,–,–,–,–,> 100,> 100,–
"CC(C)=CCCC(C)CCC(C)[N+](=O)[O-] (stereo not drawn) [SRG-8, reference compound]",–,–,–,–,–,–,–,–,–,–,> 47,> 47,> 47,> 47,> 47,> 47,> 126,–,–,did not show detectable anticancer cell growth activity
